Common to all, as to assay type: physicochemical
Series [1] is described as follows: DVS weight gain at various humidity (hygroscopicity / humidity stability). The method, then: Purge gas: N2DVS data in the present disclosure were measured via an SMS (Surface Measurement Systems Ltd.) intrinsic DVS instrument. The instrument control software is DVS-Intrinsic control software. Typical parameters for DVS test are as follows: • Temperature: 25° C. • Gas and flow rate: N2, 200 mL/min • RH range: 0% RH to 95% RH
A certain amount of Form CSI was used to test the weight gain at various humidity by a DVS instrument. The weight gains at each relative humidity were recorded in a cycle of 60% RH-95% RH-0% RH-95% RH-0% RH. […] The XRPD overlay before and after DVS test is substantially as depicted in FIG. 11.

Series [2] in a line: Storage stability of Form CSI, purity by HPLC and crystalline form by XRPD. Here is the method: (§1) XRPD patterns in the present disclosure were acquired by a Bruker D8 DISCOVER X-ray powder diffractometer. The parameters of the X-ray powder diffraction method of the present disclosure are as follows: • X-Ray source: Cu, Kα • Kα1 (Å): 1.54060; Kα2 (Å): 1.54439 • Kα2/Kα1 intensity ratio: 0.50 • Voltage: 40 kV • Current: 40 mA • Scan range (20): from 4.0 degree to 40.0 degree
A certain amount of Form CSI prepared by the present disclosure was stored under conditions of 25° C./60% RH, 40° C./75% RH and 60° C./75% RH. The purity and crystalline form were checked by HPLC and XRPD. The results are listed in Table 3, and the XRPD overlay is substantially as depicted in FIG. 7 and FIG. 8. […] Under 60° C./75% RH, it remains stable for at least 1 month with its purity also essentially unchanged, indicating very good stability even under stress conditions.

A short description of series [3]: Wet ball milling (grinding stability). The following applies: for Solid form after grinding: wet ball milling, 1800 rpm for 10 min. The method, then:
as §1
A certain amount of Form CSI solid was placed in a centrifuge tube, and about 10 μL of corresponding solvent was added inside, along with a 5 mm grinding ball. The centrifuge tube containing the sample was installed on the GT300 vibration ball mill and subjected to wet ball milling at 1800 rpm for 10 min.

[4] abbreviates: 25° C./60% RH, Open package, 6 months.
The mark [5] stands for this setting: 25° C./60% RH, Sealed package, 6 months.
Setting [6] is: 40° C./75% RH, Open package, 6 months.
Where [7] appears, read: 40° C./75% RH, Sealed package, 6 months.
Setting [8] is: 60° C./75% RH, Open package, 1 month.
Where [9] appears, read: 60° C./75% RH, Sealed package, 1 month.
Where [10] appears, read: wet ball milling at 1800 rpm for 10 min, water or ethanol.

One compound from patent publication US20260217670A1, “CRYSTAL FORM OF BAXDROSTAT, AND PREPARATION METHOD THEREFOR AND USE THEREOF” (CRYSTAL PHARMACEUTICAL (SUZHOU) CO., LTD., priority 2023, published 2026) can be followed below.

Turning to `CCC(=O)N[C@@H]1CCCc2c(-c3ccc4c(c3)CCC(=O)N4C)cncc21` [Form CSI, (+)-(R)—N-(4-(1-methyl-2-oxo-1,2,3,4-tetrahydroquinolin-6-yl)-5,6,7,8-tetrahydroisoquinolin-8-yl) propionamide], in series [1] (cycle of 60% RH-95% RH-0% RH-95% RH-0% RH), the “Form change before and after DVS test (XRPD)” value is reported as “No form change”. In series [1] (from 60% RH to 80% RH, DVS, 25° C.), this compound registered a Weight gain of 0.34%. Also, the “Time Form CSI remains stable with purity essentially unchanged” value in series [2] (25° C./60% RH) was “at least 6 months”; in series [2] (40° C./75% RH), “at least 6 months”; in series [2] (60° C./75% RH), “at least 1 month”. Also, the Purity in series [2] (setting [4]) is listed as 99.27%; in series [2] (setting [5]) it was 99.22%; in series [2] (setting [6]) it was 99.26%; in series [2] (setting [7]), 99.21%; in series [2] (setting [8]), 99.26%; in series [2] (setting [9]) it was 99.24%. In series [2] (Initial), this compound had a Purity of 99.23%. Also, the Solid form entry in series [2] (setting [4]), in series [2] (setting [5]), in series [2] (setting [6]), in series [2] (setting [7]), in series [2] (setting [8]) and in series [2] (setting [9]) was “Form CSI” throughout. For the same compound, the Solid form entry in series [2] (Initial) is “Form CSI”. The “Crystalline form before and after wet ball milling” value in series [3] (setting [10]) was “remains unchanged”. The “Crystallinity after wet ball milling” value in series [3] (setting [10]) was “no significant decrease”. In addition, the “Solid form after grinding” value in series [3] (Ethanol) and in series [3] (Water) was “Form CSI” throughout.
